Like-named read-outs stand apart in the source and are kept apart here.
How the values were obtained:
Estrone Sulfatase = target: T1, Estrone Sulfatase (Homo sapiens, UniProt P08842); test: Effects of Inhibitors on Estrone Sulfatase Activity in MCF-7 Cells; type: cell-based
T1 construct: endogenous in cells; host or cells: MCF-7 human breast cancer cells (American Type Culture Collection)
T1 sequence (P08842 22-583): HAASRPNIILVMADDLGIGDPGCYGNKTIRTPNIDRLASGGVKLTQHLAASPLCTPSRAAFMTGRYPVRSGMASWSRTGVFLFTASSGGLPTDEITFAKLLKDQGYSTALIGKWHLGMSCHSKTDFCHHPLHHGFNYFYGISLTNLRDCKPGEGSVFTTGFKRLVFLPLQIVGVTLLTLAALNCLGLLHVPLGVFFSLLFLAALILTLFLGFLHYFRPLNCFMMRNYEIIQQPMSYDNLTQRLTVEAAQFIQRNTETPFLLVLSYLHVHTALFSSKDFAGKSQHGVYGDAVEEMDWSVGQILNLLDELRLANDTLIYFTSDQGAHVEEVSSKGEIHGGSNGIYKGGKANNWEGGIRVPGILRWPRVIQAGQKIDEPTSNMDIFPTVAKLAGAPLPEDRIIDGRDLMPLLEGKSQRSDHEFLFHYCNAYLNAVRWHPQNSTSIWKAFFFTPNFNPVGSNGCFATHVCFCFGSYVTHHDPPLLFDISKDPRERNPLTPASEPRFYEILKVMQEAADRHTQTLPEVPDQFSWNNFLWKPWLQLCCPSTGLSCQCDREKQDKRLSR
From the text: A. Effects of Inhibitors on Estrone Sulfatase Activity in MCF-7 Cells
Reagents: MCF-7 human breast cancer cell line was supplied by the American Type Culture Collection, Rockville, MD. Eagle's minimum essential medium (MEM) and fetal calf serum (FCS) were purchased from Sigma Chemical Company, St. Louis, Mo. [4-^14 C]Estrone, [6,7-^3 H]estradiol and [6,7-^3 H](N)estrone sulfate were obtained from New England Nuclear Research Products, Boston, Mass.
Procedure: The method of Duncan et al., Cancer Res. 53:298-303 (1993) was employed. MCF-7 cells were seeded in 60 mm×15 mm culture dishes at 1×10^5 cells/dish and maintained in 4.0 ml of MEM containing 2 mM glutamine and 5% FCS. The cells were incubated at 37° C. in an atmosphere of 5% CO2 /95% air and 100% humidity, with the medium changed every third day. When the cells reached 80% confluency, the intact monolayers were washed once with Earl's balanced salt solution and incubated in 4.0 ml of serum and phenol re-free MEM containing either the substrate (^3 H-estrone sulfate, 7 pmol, 9×10^5 dpm) and inhibitor dissolved in ethanol, or ethanol alone. The fmal ethanol concentration was always below 1%. The incubation continued under the regular conditions for 24 h. At the end of 24 h, 2.0 ml of medium was transferred into separate tubes containing 7×10^3 dpm of ^14 C-estrone. The mixture was vortexed vigorously for 60 s with 5 ml of toluene. After phase separation, 2.0 ml of the organic phase was transferred into a counting vial for scintillation counting. The amount of estrone sulfate hydrolyzed was calculated on the basis of ^3 H counts obtained, with the added ^14 C-estrone counts used to correct for recovery through the extraction procedure.
The cells remaining in each culture dish were washed once with saline and then scraped with 1.0 ml of 0.5 N NaOH into 10×75 mm tubes. The cell pellets in each tube was incubated at 50° C. for 20 min to ensure that digestion was complete and all proteins had became soluble. An aliquot was then taken for protein determination by Lowry's method (Lowry et al., J. Biol. Chem. 193:265-275 (1951)).
The percentage of inhibition was determined by evaluating the quantity of estrone sulfate hydrolyzed with the inhibitor relative to that without the inhibitor.
As a general practice, all available inhibitors were first tested at 100 μM; the ones showing inhibitory effects at that concentration were tested again at various concentrations to obtain the IC50 values.

uterus = test: Uterotrophic assay (estrogenic activity from uterine weights); type: in vivo, Sprague Dawley rats; design: scale not given here; conditions: female rats, test compound alone once daily for 7 days, s.c. or oral gavage; uterine weight vs vehicle control
From the text: B. Uterotrophic and antiuterotrophic assays
Sprague Dawley rates are obtained from Simmonsen Laboratories, Gilroy, Calif. Estradiol benzoate may be purchased from Sigma Chemical Co., St. Louis, Mo.
The procedure of Wakeling et al., Endocrinology 99:447453 (1983) is followed. Female Sprague Dawley rats weighing 40-50 grams are used for the experiment. In general, animals are quarantined for 3 days after arrival at the experimental site.
Rats are initially weighed and randomly divided into groups with 5 animals in each group. For the uterotrophic assay, animals are dosed once daily with various doses of test compounds in 0.1 or 1.0 ml of sterile saline via subcutaneous injection or oral gavage, respectively. For the antiuterotrophic assay, animals are dosed once daily with the same doses indicated above plus 0.5 μg/rat of estradiol benzoate alone.
The animals are treated for 7 days. On day 8, animals are weighed and then sacrificed. The uterus of each animal is removed immediately after death and weighed; fat materials are trimmed off prior to weighing.
A comparison of uterine weights from the groups receiving test compound alone with those of the vehicle control group gives the estrogenic activity. Antiestrogenic activity is obtained by comparing the uterine weights from the groups receiving test compound plus estradiol with those of the estradiol control group.

[1] = intact MCF-7 human breast cancer cells, 3H-estrone sulfate substrate, 24 h, 37° C., read-out: Estrone Sulfatase Inhibitory Activity IC50

Row | Structure (SMILES) | IC50 (Estrone Sulfatase; [1]) [nM] | Estrogenic Activity (uterus) | IC50 (Estrone Sulfatase) [nM]
1 | CN(C)c1cc2c(cc1OS(N)(=O)=O)CC[C@@H]1[C@@H]2CC[C@]2(C)C(=O)CC[C@@H]12 [Compound 83, 2-Dimethylaminoestra-1,3,5(10)-trien-17-one-3-O-sulfamate] | 270 | 0 | –
2 | CCOC(=O)/C=C1\CC[C@H]2[C@@H]3CCc4cc(OS(N)(=O)=O)ccc4[C@H]3CC[C@]12C [Compound 34, Ethyl 3-Sulfamoyloxy-[17(20)E]-19-norpregna-1,3,5(10),17(20)-tetraen-21-oate] | 0.27 | 0 | –
3 | CC/C=C1/CC[C@H]2[C@@H]3CCc4cc(OS(N)(=O)=O)ccc4[C@H]3CC[C@]12C [Compound 15, [17(20)Z]-Propylideneestra-1,3,5(10)-triene-3-O-sulfamate] | 0.038 | 0.30 | –
4 | C/C=C1/CC[C@H]2[C@@H]3CCc4cc(OS(N)(=O)=O)c(OC)cc4[C@H]3CC[C@]12C [Compound 69, 2-Methoxy-[17(20)Z]-19-norpregna-1,3,5(10),17(20)-tetraene-3-O-sulfamate] | 2.5 | 0 | –
5 | C[C@]12CC[C@@H]3c4cc([N+](=O)[O-])c(OS(N)(=O)=O)cc4CC[C@H]3[C@@H]1CCC2=O [Compound 78, 2-Nitroestra-1,3,5(10)-trien-17-one-3-O-sulfamate] | – | 0 | 7
6 | C#CC1=CC[C@H]2[C@@H]3CCc4cc(OS(N)(=O)=O)ccc4[C@H]3CC[C@]12C [Compound 5, 19-Norpregna-1,3,5(10),16-tetraen-20-yne-3-O-sulfamate] | 0.25 | 0.40 | –
7 | C/C=C1/CC[C@H]2[C@@H]3CCc4cc(OS(N)(=O)=O)ccc4[C@H]3CC[C@]12C [Compound 13, [17(20)Z]-19-Norpregna-1,3,5(10),17(20)-tetraene-3-O-sulfamate] | 0.08 | 0.05 | –

Reference: patent US6046186A, “Estrone sulfamate inhibitors of estrone sulfatase, and associated pharmaceutical compositions and methods of use” (SRI International, priority 1997, dated 2000)
